Source: US20060094698A1, “Self-administered contraceptive injection of oily solution” (priority 2002, published 2006)

Key:
[1] = Density, Mettler Toledo DA-100M density meter; assay type: physicochemical
Protocol: (§1) Using these solvents, the following solutions were prepared: • 100 mg/ml etonogestrel undecanoate in the different solvents • 50 mg/ml etonogestrel undecanoate in the different solvents • 200 mg/ml MENT undecanoate in the different solvents • 100 mg/ml MENT undecanoate in the different solvents • 50 mg/ml etonogestrel undecanoate+100 mg/ml MENT undecanoate in the different solvents
(§2) The solubility of the compounds in the solvents was determined visually. The viscosity was determined using a Brookfield model DV-III. The density of the solutions was determined using a Mettler Toledo DA-100M density meter.

[2] = Solubility / appearance of solutions determined visually; settings: for solubility (visual) in all four tested solvents: desired concentration 50 mg/ml etonogestrel-undecanoate, 100 mg/ml MENT-undecanoate
Protocol: as §1, §2

[3] = Viscosity, Brookfield model DV-III; assay type: physicochemical
Protocol: as §1, §2

[4] = Pharmacokinetics of etonogestrel esters after one i.m. injection in the rabbit (plasma etonogestrel by LC-MSMS); assay type: in vivo; settings: for peak levels of etonogestrel: one i.m. injection 20 mg/kg in arachis oil (40 mg/ml), rabbit plasma
Protocol: For the determination of the pharmacokinetic profile of the different etonogestrel-esters after parenteral application, i.m. application in the castrated rabbit model was chosen instead of s.c. Briefly, rabbits were injected once (day 1) with indicated etonogestrel-esters at 20 mg/kg in arachis oil (with a concentration of 40 mg/ml). At day 1, 2, 3, 4, 5, 6, 7, 8, 10, 12, 14, 21, 28, 35, 49, 63, 77, 92, 106, 120 and 133 blood was collected from the ear arteria, in EDTA-containing tubes. EDTA plasma was prepared (1500 g, 15 min) and stored at −20° C. With LC-MSMS, the amount of parent compound (etonogestrel) was determined in these samples. The lower limit of this new assay is 0.5 nmol/l, from 0-250 nmol/l a linear curve was obtained with a correlation coefficient of 0.9998.

[5] = Pharmacokinetics of androgen esters after one s.c. injection in the castrated rabbit (plasma MENT or testosterone by LC-MSMS); assay type: in vivo; settings: one s.c. injection 20 mg/kg in arachis oil (100 mg/ml)
Protocol: For the determination of the pharmacokinetic profile of the different androgen-esters after s.c. application, the castrated rabbit model was selected as the model which is most similar to humans. Briefly, rabbits were injected once (day 1) with indicated androgen-esters at 20 mg/kg in arachis oil (with a concentration of 100 mg/ml). At day 2, 3, 4, 5, 8, 15, 22, 36, 44 and 58 blood was collected from the ear arteria, in EDTA-containing tubes. EDTA plasma was prepared (1500 g, 15 min) and stored at −20° C. With LC-MSMS, the amount of parent compound (testosterone or MENT) was determined in these samples. The lower limit of this new assay is 2 nmol/l, from 0-500 nmol/I a linear curve was obtained with a correlation coefficient of 0.9998.

[6] = one IM injection, hypogonadal men, FIG. 5 (Nieschlag and Behre 1997); cited from earlier work
[7] = one i.m. injection 20 mg/kg in arachis oil, rabbit
[8] = solvent arachis oil + 50% benzyl benzoate, etonogestrel undecanoate 50 mg/ml and/or MENT undecanoate 100 mg/ml
[9] = solvent arachis oil, etonogestrel undecanoate 50 mg/ml and/or MENT undecanoate 100 mg/ml
[10] = solvent ethyl undecanoate + 50% benzyl benzoate, etonogestrel undecanoate 50 mg/ml and/or MENT undecanoate 100 mg/ml
[11] = solvent ethyl undecanoate, etonogestrel undecanoate 50 mg/ml and/or MENT undecanoate 100 mg/ml

## CCCCCCCCCCC(=O)OCC [Ethyl undecanoate]
[1]; solvent alone
  Density: 0.861
[2]; solvent alone
  Appearance: Clear colourless solution
[3]; solvent alone
  Viscosity: 2.6

## C#C[C@]1(OC(=O)CCCCCC)CC[C@H]2[C@@H]3CCC4=CC(=O)CC[C@@H]4[C@H]3C(=C)C[C@@]21CC [Etonogestrel-heptanoate]
[4]
  peak levels of etonogestrel: 120 nmol/L

## C#C[C@]1(OC(=O)CCCCCCCC)CC[C@H]2[C@@H]3CCC4=CC(=O)CC[C@@H]4[C@H]3C(=C)C[C@@]21CC [Etonogestrel-nonanoate]
[4]
  peak levels of etonogestrel: lower peak levels
[4]; [7]
  duration of action (etonogestrel levels above 1 nmol/l): extended duration

## CCCCCCCCCCC(=O)O[C@H]1CC[C@H]2[C@H]3[C@H](CC[C@]12C)[C@H]1CCC(=O)C=C1C[C@H]3C [MENT-undecanoate]
[1]; [8]
  Density: 1.009 g/mL
[1]; [9]
  Density: 0.924 g/mL
[1]; [10]
  Density: 0.979 g/mL
[1]; [11]
  Density: 0.879 g/mL
[2]; 200 mg/ml in arachis oil
  heating temperature necessary to dissolve: approximately 50 °C
[2]
  solubility (visual) in all four tested solvents: could be dissolved at two times the desired concentration
[2]; [8]
  Appearance: Clear yellowish solution
[2]; [9]
  Appearance: Clear yellowish solution
[2]; [10]
  Appearance: Clear colourless solution
[2]; [11]
  Appearance: Clear colourless solution
[3]; [8]
  Viscosity: 35.0 cps
[3]; [9]
  Viscosity: 97.2 cps
[3]; [10]
  Viscosity: 6.1 cps
[3]; [11]
  Viscosity: 4.0 cps

## CCCCCCC(=O)O[C@H]1CC[C@H]2[C@@H]3CCC4=CC(=O)CC[C@]4(C)[C@H]3CC[C@]12C [Testosterone enanthate, testosterone enanthate]
[5]
  pharmacokinetic profile of released MENT or testosterone: high peak of testosterone

## C#CC1(OC(=O)CCCCCCCCC)CCC2C3CCC4=CC(=O)CCC4C3C(=C)CC21CC (centres unmarked) [etonogestrel decanoate]
[4]
  peak levels of etonogestrel: 24 nmol/L
[4]; [7]
  time of initial peak level of etonogestrel: 5 days

## C#C[C@]1(OC(=O)CCCCCCCCCCC)CC[C@H]2[C@@H]3CCC4=CC(=O)CC[C@@H]4[C@H]3C(=C)C[C@@]21CC [etonogestrel dodecanoate]
[4]
  peak levels of etonogestrel: 9 nmol/L
[4]; [7]
  time of initial peak level of etonogestrel: 8 days

## C#C[C@]1(OC(=O)CCCCCCCCCCCC)CC[C@H]2[C@@H]3CCC4=CC(=O)CC[C@@H]4[C@H]3C(=C)C[C@@]21CC [etonogestrel tridecanoate]
[4]
  peak levels of etonogestrel: no initial levels of etonogestrel were observed

## C#C[C@]1(OC(=O)CCCCCCCCCC)CC[C@H]2[C@@H]3CCC4=CC(=O)CC[C@@H]4[C@H]3C(=C)C[C@@]21CC [etonogestrel undecanoate]
[1]; [8]
  Density: 1.006 g/mL
[1]; [9]
  Density: 0.919 g/mL
[1]; [10]
  Density: 0.978 g/mL
[1]; [11]
  Density: 0.870 g/mL
[2]
  solubility (visual) in all four tested solvents: could be dissolved at two times the desired concentration
[2]; [8]
  Appearance: Clear yellowish solution
[2]; [9]
  Appearance: Clear yellowish solution
[2]; [10]
  Appearance: Clear colourless solution
[2]; [11]
  Appearance: Clear colourless solution
[4]
  peak levels of etonogestrel: 13 nmol/L
[4]; [7]
  duration of action (etonogestrel levels above 1 nmol/l): more than 92 days
[3]; [8]
  Viscosity: 28.1 cps
[3]; [9]
  Viscosity: 76.6 cps
[3]; [10]
  Viscosity: 4.7 cps
[3]; [11]
  Viscosity: 3.2 cps

## C#C[C@]1(O)CC[C@H]2[C@@H]3CCC4=CC(=O)CC[C@@H]4[C@H]3C(=C)C[C@@]21CC [etonogestrel, (17α)-13-ethyl-17-hydroxy-11-methylene-18,19-dinorpregn-4-en-20-yn-3-one, reference compound]
[4]
  peak levels of etonogestrel: 200 nmol/L
[4]; [7]
  time in which etonogestrel levels declined to below 1 nmol/l: 28 days

## CCCCCCCCCCC(=O)O[C@H]1CC[C@H]2[C@@H]3CCC4=CC(=O)CC[C@]4(C)[C@H]3CC[C@]12C [testosterone undecanoate]
[6]
  pharmacokinetics of serum testosterone in humans: low initial release and steady-state levels of long duration
